Measurements published in publication PMC9150124, “Design of a Potent, Selective, and Brain-Penetrant Inhibitor of Wnt-Deactivating Enzyme Notum by Optimization of a Crystallographic Fragment Hit” (Journal of Medicinal Chemistry, 2022).
≈ marks a conversion by molar mass, not a printed value. Where “and” joins values, the source holds several entries; their conditions need not be identical. Equal values may be shown once. Read-outs that look alike come from different tables or passages of the source. Values belong to the molecule of their own block, whether it stands above or below them.

Legend:
[1] = target: T1, human Notum (81–451 Cys330Ser) (Homo sapiens, UniProt Q6P988, C330S); assay: Notum OPTS biochemical assay; details: for IC50: mean
T1 construct: human Notum (81–451 Cys330Ser) as the enzyme; made in house
T1 sequence (Q6P988 81-451 C330S): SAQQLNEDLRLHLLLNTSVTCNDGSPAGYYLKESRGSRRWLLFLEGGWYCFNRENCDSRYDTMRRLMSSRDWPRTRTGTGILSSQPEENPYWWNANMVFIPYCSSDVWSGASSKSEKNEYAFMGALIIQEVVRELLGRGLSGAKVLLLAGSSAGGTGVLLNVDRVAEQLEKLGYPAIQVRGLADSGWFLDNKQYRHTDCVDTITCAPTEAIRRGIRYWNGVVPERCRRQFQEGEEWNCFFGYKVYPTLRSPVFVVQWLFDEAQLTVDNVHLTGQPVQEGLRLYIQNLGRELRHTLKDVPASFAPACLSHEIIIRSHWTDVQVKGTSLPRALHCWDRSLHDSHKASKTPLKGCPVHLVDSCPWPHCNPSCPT
Text: The optimization of 6 to deliver this profile was directed at three principle areas of these hit structures: (1) aryl ring 7 (Table 1); (2) the C4 substituent on triazole 8 (Table 2); and (3) further fine-tuning of the triazole 9 (Table 3). […] This assay was used to establish SAR and to identify preferred leads for additional studies.
Methods have been described in detail elsewhere.[23]−[26] Representative concentration–response curves are provided in the Supporting Information.

[2] = Aqueous solubility in PBS (pH 7.4); type: physicochemical
Text: Biosciences (Hyderabad, India) or WuXi AppTec (Shanghai, China).
Table S1: Representative assay protocol

[3] = Stability in mouse liver microsomes; type: in vitro ADME
in vitro [4] = details: dog
P-gp (MDR1) = assay: in vitro; details: dog
MDR1 (P-gp) = assay: in vitro; details: dog
in vitro [5] = details: pH 7.4
Procedure: G. Plasma protein binding (PPB):
Method: rapid equilibrium dialysis.
Test System Mouse Plasma (K2EDTA)
Test compound concentration 10 µM (mouse) or 2 µM (rat)

[6] = OPTS substrate, read-out: Notum IC50
[7] = MDCK-MDR1, MDCK-MDR1 AB Papp, apical to basal
[8] = MDCK-MDR1, MDCK-MDR1 BA Papp, basal to apical

Structure (SMILES): Cc1cccc(-n2cc(CO)nn2)c1 [7e, ((3-Methylphenyl)-1H-1,2,3-triazol-4-yl)methanol]
% I ([1]; @10 μM): b 40–50% I@10 μM. | IC50 [1, 6]: ~10 µM and 10 µM

Structure (SMILES): N#Cc1cccc(-n2cc(CO)nn2)c1 [7h, ((3-Cyanophenyl)-1H-1,2,3-triazol-4-yl)methanol]
IC50 [1, 6]: 83 ± 36 µM

Structure (SMILES): [2H]c1nnn(-c2ccc(Cl)c(C(F)(F)F)c2Cl)c1[2H] [d2-8l, 1-(2,4-Dichloro-3-(trifluoromethyl)phenyl)-1H-1,2,3-triazole-4,5-d2]
solubility ([2]; PBS pH 7.4, read-out: aq. solubility): 44 µg/mL and 155 µM | solubility thermodynamic ([2]; PBS, pH 7.4, n = 2, read-out: Thermodynamic Solubility @ RT, mean): 0.044 mg/mL (≈ 155 µM) | MLM Cli [3]: 5.4 μL/min/mg protein and 5.4/ND μL/min/mg protein | half-life ([3]; mouse, liver microsomes, Table S4, read-out: MLM Stability t1/2): 2.15 h | Papp (in vitro [4]; [7]): 480 nm/s | Papp (in vitro [4]; [8]): 350 nm/s | Papp (P-gp (MDR1); [7]): 478 nm/s | Papp (P-gp (MDR1); [8]): 354 nm/s | recovery (MDR1 (P-gp); MDCK-MDR1, MDR1-MDCKII A to B % Recovery): 102% | recovery (MDR1 (P-gp); MDCK-MDR1, MDR1-MDCKII B to A % Recovery): 111%

Structure (SMILES): CC(=O)CC(c1ccccc1)c1c(O)c2ccccc2oc1=O (centres unmarked) [Warfarin, reference compound]
recovery at 4 h, 2 µM (in vitro [5]; SD, rat): 100% | fraction unbound at 4 h, 2 µM (in vitro [5]; SD, rat, plasma): 0.0063 | recovery at 5 h, 10 µM (in vitro [5]; mouse): 103% | Plasma protein binding (PPB), % bound (in vitro [5]; mouse, plasma, 5 h, 10 µM): 95.71% | fraction unbound at 5 h, 10 µM (in vitro [5]; mouse, plasma): 0.0429

Structure (SMILES): OCc1cn(-c2cccc(F)c2)nn1 [7d, ((3-Fluorophenyl)-1H-1,2,3-triazol-4-yl)methanol]
IC50 [1, 6]: 25 ± 3 µM

Structure (SMILES): CC(O)Cc1cn(-c2ccc(Cl)c(C(F)(F)F)c2Cl)nn1 (centres unmarked) [8d, 1-(1-(2,4-Dichloro-3-(trifluoromethyl)phenyl)-1H-1,2,3-triazol-4-yl)propan-2-ol]
IC50 ([1]; Notum IC50, OPTS substrate): > 1 µM | IC50 [1, 6]: 1.7 ± 1.4 µM

Structure (SMILES): CCOc1ccc(-n2cc(CO)nn2)cc1 [7n, ((4-Ethoxyphenyl)-1H-1,2,3-triazol-4-yl)methanol]
IC50 [1, 6]: 78 ± 45 µM

The remaining lines, values ahead:

IC50 [1, 6]: 0.2 ± 0.05 µM
Structure (SMILES): COCc1cn(-c2ccc(Cl)c(C(F)(F)F)c2Cl)nn1 [8j, 1-(2,4-Dichloro-3-(trifluoromethyl)phenyl)-4-(methoxymethyl)-1H-1,2,3-triazole]

IC50 [1, 6]: 1.3 ± 0.21 µM
Structure (SMILES): FC(F)(F)c1c(Cl)ccc(-n2cnnc2)c1Cl [9a, 4-(2,4-Dichloro-3-(trifluoromethyl)phenyl)-4H-1,2,4-triazole]

reduction in potency vs 7y [1]: 12 fold | IC50 [1, 6]: 0.11 ± 0.04 µM
Structure (SMILES): Cc1cn(-c2ccc(Cl)c(C(F)(F)F)c2Cl)nn1 [8k, 1-(2,4-Dichloro-3-(trifluoromethyl)phenyl)-4-methyl-1H-1,2,3-triazole]

IC50 [1, 6]: 2.3 ± 0.22 µM
Structure (SMILES): CNC(=O)c1cn(-c2ccc(Cl)c(C(F)(F)F)c2Cl)nn1 [8h, 1-(2,4-Dichloro-3-(trifluoromethyl)phenyl)-N-methyl-1H-1,2,3-triazole-4-carboxamide]

IC50 [1, 6]: 0.14 ± 0.02 µM
Structure (SMILES): FC(F)(F)c1c(Cl)ccc(-n2cnnn2)c1Cl [9b, 1-(2,4-Dichloro-3-(trifluoromethyl)phenyl)-1H-tetrazole]

IC50 [1, 6]: 7.4 ± 1.1 µM
Structure (SMILES): OC1(Cc2cn(-c3ccc(Cl)c(C(F)(F)F)c3Cl)nn2)COC1 [8e, 3-((1-(2,4-Dichloro-3-(trifluoromethyl)phenyl)-1H-1,2,3-triazol-4-yl)methyl)oxetan-3-ol]
